Test results: US8703824B2, “Cationic amphiphiles with mannose-mimicking head-groups and a process for the preparation thereof” (Council of Scientific & Industrial Research, priority 2010, dated 2014)

Assays:
RAW 264.7 cells [1] = experiment: Reporter gene (luciferase) expression assay, lipoplex transfection of RAW 264.7 cells; type: cell-based, murine; conditions: for in vitro transfection efficiencies relative to control mannosylated lipid 3: DOPE as co-lipid, lipid:DNA charge ratios 2:1 to 8:1, FIG. 4; for transfection efficiencies with DOPC as co-lipid compared to DOPE as co-lipid: lipid:DNA charge ratio of 8:1, FIG. 5
Method: The liposomes were prepared by the conventional method. Briefly, cationic lipids and co-lipids (Cholesterol, DOPE, DOPC) at 2:1 molar ratios were dissolved in chloroform. The solvent was then evaporated under a thin stream of nitrogen gas, vacuum dried for 8 h and hydrated in deionised water overnight to give a final lipid concentration of 1 mM for in vitro experiments or 5 mM for in vivo experiments. The hydrated lipid film was first vortexed for 30 seconds and then sonicated until clarity using a Branson 450 sonifier at 100% duty cycle and 25 W output power. The resulting clear aqueous liposomes were used in preparing lipoplexes.
(§1) Cells were seeded at a density of 25000 (for RAW 264.7) per well in a 96-well plate for 18-24 h before the transfection. 0.3 μg (0.9 nmol) of plasmid DNA was complexed with varying amounts of lipids (1 nmol-8 nmol) in serum free medium (total volume made up to 100 μL) for 30 minutes. The charge ratios were varied from 1:1 to 8:1 over these ranges of the lipids. Immediately prior to transfection, cells plated in the 96-well plate were washed with PBS (2×100 μL) followed by the addition of lipoplexes. After 4 h of incubation, the medium was replaced with fresh complete medium containing 10% FBS. The luciferase reporter gene activity was estimated after 24 h. The cells were washed twice with PBS (100 pt each) and lysed in 50 μL lysis buffer. Care was taken to ensure complete lysis. 10 μL Promega luciferase assay buffer was added to the 5 μL lysate in a polystyrene plate and the luciferase activity per well was estimated using a FLx800 microplate luminescence reader (Bio-Tek instruments, INC, UK). Protein concentration in each well was determined by the modified Lowry method (Lundqvist A, et al. J Immunother. 2002, 25, 445-454) and the luciferase activity was expressed as the relative light unit (RLU) per mg of the protein.
(§2) Each transfection experiment was repeated two times on two different days. The transfection values reported were average values from two replicate transfection plates assayed on the same day. When mannan was used, the cells were pretreated for 30 mins at 37° C., 5% CO2 with mannan (50 μg), and the transfection was carried out in its presence. After 4 h at 37° C., the medium was replaced with fresh complete medium without mannan and the transfection activity was evaluated after 24 h as described above.

RAW 264.7 cells [2] = experiment: Mannose receptor specific transfection of RAW 264.7 cells in presence and absence of mannan; type: cell-based, murine; conditions: DOPE as co-lipid; lipid:DNA ratio 8:1 to 1:1; 50 μg mannan; FIGS. 6-8
Method: as §1, §2

NIH3T3 cells = experiment: Transfection of NIH3T3 cells (no mannose receptor) in presence and absence of mannan; type: cell-based, murine; conditions: DOPE as co-lipid, lipid:DNA ratio 8:1 to 1:1, 50 μg mannan, FIGS. 6-8
Method: as §1, §2

[3] = system: mouse bone marrow derived dendritic cells; experiment: DC-transfection with pα5GFP lipoplexes, flow cytometric analysis of GFP expression; type: cell-based, C57BL/6J mice; conditions: mbmDCs; for efficacies in delivering genes to dendritic cells relative to mannosyl analog 3: flow cytometry (FIG. 11) and fluorescence microscopy (FIG. 12)
Method: Primary mbmDCs were isolated using a previously described procedure (Inaba K, et al. J Exp Med 1992; 176:1693-1702). Briefly, bone marrow collected from tibias and fibulas of male C57BL/6 mice was passed through a nylon mesh to remove bone and debris, and resuspended in complete DC medium (RPMI-1640 containing 10% FBS, 50 μM β-mercaptoethanol, 2 mM glutamine, 1% NEAA, 20 ng/mL GM-CSF and 10 ng/mL IL-4, 1% antibiotic solution). Cells were supplemented with fresh DC medium every two days. After 6 days, the aggregated cells were dislodged by gently pipetting RPMI over the adherent stroma. The dislodged cells were pulled together and centrifuged at 280 g for […] at room temperature. The supernatant was discarded. The pellets were first resuspended in complete DC medium at 1×10^6 cells/mL and finally placed in 100 mm cell culture petri dishes at 1×10^7 cells/dish in 10 mL medium per dish. After 24 h, the nonadherent cells were collected by gently swirling the dish and were used for transfection and flow cytometry experiments. Cultures were maintained in a humidified atmosphere with 5% CO2 at 37° C.
First, the transfection efficiency of the lipids 1, 2 & 3 were evaluated in mouse bone marrow derived dendritic cells. To this end, the immature dendritic cells were isolated from the bone marrow of C57BL/6J mice by culturing with GM-CSF and IL-4 following the protocol described above. […] The profiles of the DC markers were monitored by flow cytometry. […] After confirming the presence of these expected DC markers on the surface of the isolated DCs, the transfection efficiencies of the cationic amphiphiles 1, 2 & 3 were evaluated in mbmDCs. […] Lipoplexes containing 3 μg of plasmid DNA encoding green fluorescence protein (pα5GFP) and 8 nmol cationic amphiphiles 1, 2 & 3 were added to the cells and incubated for 4 h at 37° C. in serum free medium with 5% CO2. […] The transfection efficiencies of the cationic amphiphiles 1, 2 & 3 were measured by Flow cytometric analysis.

[4] = Dendritic cell based genetic immunization (s.c. pre-transfected mbmDCs), anti β-gal antibody ELISA; type: in vivo, C57BL/6J mice; conditions: s.c. 5×10^5 pre-transfected mbmDCs twice with 7-day interval; sera two weeks after second immunization; Part A, FIG. 13
Method: The transfected mbmDCs were harvested by DC isolation protocol described above and washed with PBS (2×100 μL). The cells were resuspended in HBSS medium at 5×10^5 cells/100 μL. 6-8 weeks old female C57BL/6J mice (n=5, each weighing 20-22 g) were immunized (s.c.) with 100 μL of transfected mbmDCs (˜5×10^5 cells) twice with a 7-day interval. Two weeks after the second immunization, mice were sacrificed and sera & spleens were collected for immune response assays.
Anti-β-gal antibodies were measured using an enzyme linked immunosorbent (ELISA) assay as described earlier (McKeever, U. et al. Vaccine 2002; 20:1524-1531). Briefly, 96 well ELISA plates were coated with β-gal protein (0.3 μg per well) using a 5 μg/mL stock solution prepared in PBS. Plates were washed with PBS (3×200 μL) and blocked with 1% BSA in PBS at room temperature for 2 h. The plates were then washed with PBS containing 0.05% Tween-20 (3×200 μL) and incubated with mouse sera (100 μL) at room temperature for 2 h. The plates were again washed with PBS containing 0.05% Tween-20 (3×200 μL) and 100 μL of diluted (1:1000) anti-mouse antibody conjugated to horse radish peroxidase was added to each well. […] The plates were then incubated in dark with 100 μL of ABTS (Calbiochem, USA) per well at 25° C. for 10 min and the absorbance was measured at 405 nm by ELISA reader (Bio-Tek instruments Inc, UK).

With “2-[(N,N-di-n-hexadecyl-N-methyl)amino]-ethylL-L-lysyl-quinate chloride [lipid 2]” the “in vitro transfection efficiencies relative to control mannosylated lipid 3” value (RAW 264.7 cells [1]) was “higher in vitro transfection efficiencies than their control mannosylated lipid 3”, the “transfection efficiencies with DOPC as co-lipid compared to DOPE as co-lipid” value (RAW 264.7 cells [1]) was “enhanced further” and the “transfection efficiencies when cells were pretreated with mannan” value (from here on “transfection efficiencies … with mannan”) (RAW 264.7 cells [2]) was “significantly diminished”. The “transfection efficiency when cells were pretreated with mannan” value (from here on “transfection efficiency … with mannan”) (NIH3T3 cells) was “did not get affected”, the “efficacies in delivering genes to dendritic cells relative to mannosyl analog 3” value [3] was “superior to those of their mannosyl analog 3” and the “anti β-gal antibody responses relative to mannosyl analog 3” value [4] was “higher anti β-gal antibody responses”.
For “2-[(N,N-di-n-hexadecyl-N-methyl)amino]-ethylL-L-lysyl-shikimate chloride [lipid 1]”, the “in vitro transfection efficiencies relative to control mannosylated lipid 3” value (RAW 264.7 cells [1]) was “higher in vitro transfection efficiencies than their control mannosylated lipid 3”, the “transfection efficiencies with DOPC as co-lipid compared to DOPE as co-lipid” value (RAW 264.7 cells [1]) was “enhanced further” and the “transfection efficiencies … with mannan” value (RAW 264.7 cells [2]) was “significantly diminished”. For the same substance, the “transfection efficiency … with mannan” value (NIH3T3 cells) was “did not get affected”, the “efficacies in delivering genes to dendritic cells relative to mannosyl analog 3” value [3] was “superior to those of their mannosyl analog 3” and the “anti β-gal antibody responses relative to mannosyl analog 3” value [4] was “higher anti β-gal antibody responses”.
With “2-[(N,N-di-n-hexadecyl-N-methyl)amino]-ethylL-L-lysyl-β-D-Mannoside chloride [lipid 3, reference compound]” the “transfection efficiencies with DOPC as co-lipid compared to DOPE as co-lipid” value (RAW 264.7 cells [1]) was “enhanced further”, the “transfection efficiencies … with mannan” value (RAW 264.7 cells [2]) was “significantly diminished” and the “transfection efficiency … with mannan” value (NIH3T3 cells) was “did not get affected”. For the same substance, the “DC transfection efficiency (GFP expression by FACS)” value ([3]; 3 μg pα5GFP plasmid, 8 nmol cationic amphiphile, FIG. 11) was 5%.
